According to EP0490193A1, “Complex of an actif enantiomer of ibuprofen with cyclodextrin” (priority 1990, dated 1992):

Assays:
[1] = nach Ibuprofengaben; cited from earlier work
[2] = Ratten; cited from earlier work
[3] = Dissolution properties in water at 37° C (Tabelle I); assay type: physicochemical; conditions: Wasser
[4] = In vitro diffusion study, concentration in the receptor cell, buffer pH 1,2, 37° C (Tabelle II); assay type: in vitro ADME; conditions: Pufferlösung pH = 1,2, 37° C
Excerpt: Um die gute biologische Verfügbarkeit des S-(+)-Ibuprofens aus der komplexierten Form zu testen, wurden in vitro-Diffusionsversuche durchgeführt. Die Diffusion des S-(+)-Ibuprofens aus dem β-Cyclodextrin-Komplex war schneller, die S-(+)-Ibuprofen-Menge in der Rezeptorzelle betrug das 1,6fache bei pH = 1,2 nach 6 Stunden im Vergleich zum freien Arzneimittel (Tabelle II).

[5] = synoviale Flüssigkeit, Patienten mit Arthritis; cited from earlier work

Row | SMILES | aus dem Urin zurückgewonnen [1] | Absorptionsgrad [2] | gelöstes Ibuprofen ([3]; Zeit 1 min) | gelöstes Ibuprofen ([3]; Zeit 5 min) | gelöstes Ibuprofen ([3]; Zeit 10 min) | gelöstes Ibuprofen ([3]; Zeit 15 min) | gelöstes Ibuprofen ([3]; Zeit 30 min) | gelöstes Ibuprofen ([3]; Zeit 60 min) | Konzentration von S-(+)-Ibuprofen in der Rezeptorzelle ([4]; Zeit 90 min) | Konzentration von S-(+)-Ibuprofen in der Rezeptorzelle ([4]; Zeit 120 min) | Konzentration von S-(+)-Ibuprofen in der Rezeptorzelle ([4]; Zeit 180 min) | Konzentration von S-(+)-Ibuprofen in der Rezeptorzelle ([4]; Zeit 240 min) | Konzentration von S-(+)-Ibuprofen in der Rezeptorzelle ([4]; Zeit 360 min) | Konzentrationsverhältnis S zu R [5]
1 | CC(C)Cc1ccc(C(C)C(=O)O)cc1 (racemic) [Ibuprofen] | 5,0% | gleich | – | – | – | – | – | – | – | – | – | – | – | –
2 | CC(C)Cc1ccc([C@H](C)C(=O)O)cc1 [S-(+)-Ibuprofen, S-(+)-2-(-4-Isobutylphenyl)propionsäure] | – | – | 0,04 mg/ml | 0,10 mg/ml | 0,12 mg/ml | 0,13 mg/ml | 0,12 mg/ml | 0,12 mg/ml | 0,022 mg/ml | 0,027 mg/ml | 0,038 mg/ml | 0,047 mg/ml | 0,061 mg/ml | 2,1
